This note sets out measurements from PubChem BioAssay AID330 (DTP/NCI, 2004).

Toxic doses and inconclusive results are not listed. Peptide text beside a SMILES is read from it.

The assay deals with P388 leukemia ip, CD2F1 mice, survival T/C. Put plainly: NCI In Vivo Anticancer Drug Screen. Data for tumor model P388 Leukemia (intraperitoneal) in CD2F1 (CDF1) mice. The settings on record: endpoint: median survival time, higher = longer survival. In outline: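 Mice carrying the transplanted tumor received test compound or vehicle. Survival was recorded in each group, and the value is the treated-group measurement divided by that of the vehicle-treated control group.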

Setting [1] is: dose: 25.0 mg/kg/injection, schedule: Q01DX009 (ip), vehicle: saline with Tween-80.
Setting [2] is: dose: 50.0 mg/kg/injection, schedule: Q01DX009 (ip), vehicle: saline with Tween-80.
[3] abbreviates: dose: 100.0 mg/kg/injection, schedule: Q01DX009 (ip), vehicle: saline with Tween-80.
Where [4] appears, read: dose: 25.0 mg/kg/injection, schedule: Q01DX009 (ip), vehicle: suspension in saline.
Setting [5] is: dose: 50.0 mg/kg/injection, schedule: Q01DX009 (ip), vehicle: suspension in saline.
[6] abbreviates: dose: 200.0 mg/kg/injection, schedule: Q01DX009 (ip), vehicle: saline with Tween-80.
[7] abbreviates: dose: 50.0 mg/kg/injection, schedule: Q01DX005 (ip), vehicle: Klucel (hydroxypropylcellulose) (HPC).
Setting [8] is: dose: 100.0 mg/kg/injection, schedule: Q01DX005 (ip), vehicle: Klucel (hydroxypropylcellulose) (HPC).
Where [9] appears, read: dose: 60.0 mg/kg/injection, schedule: Q01DX005 (ip), vehicle: saline with Tween-80.
Setting [10] is: dose: 120.0 mg/kg/injection, schedule: Q01DX005 (ip), vehicle: saline with Tween-80.
Setting [11] is: dose: 240.0 mg/kg/injection, schedule: Q01DX005 (ip), vehicle: saline with Tween-80.

On to `CC(C)CC(N)C(=O)NC(CCCN=C(N)N)C(=O)NC(CCCN=C(N)N)C(=O)NC(C)C(=O)NC(CO)C(=O)NC(CC(C)C)C(=O)NCC(=O)O` (centres undefined) (H-LRRASLG-OH; configuration not given here), for which the T/C runs as follows: (dose: 2.25 mg/kg/injection, schedule: Q01DX009 (ip), vehicle: Klucel (hydroxypropylcellulose) (HPC)) 103 % of control; (dose: 4.5 mg/kg/injection, schedule: Q01DX009 (ip), vehicle: Klucel (hydroxypropylcellulose) (HPC)) 100 % of control; (dose: 9.0 mg/kg/injection, schedule: Q01DX009 (ip), vehicle: Klucel (hydroxypropylcellulose) (HPC)) 100 % of control; (dose: 18.0 mg/kg/injection, schedule: Q01DX009 (ip), vehicle: Klucel (hydroxypropylcellulose) (HPC)) 106 % of control; (dose: 36.0 mg/kg/injection, schedule: Q01DX009 (ip), vehicle: Klucel (hydroxypropylcellulose) (HPC)) 106 % of control.

As for `Cc1nc(-c2ccccc2)nc2c1nc(C(C)C)n2Nc1ccccc1`, the T/C (dose: 50.0 mg/kg/injection, schedule: Q01DX005 (ip), vehicle: saline with Tween-80) is 96 % of control and the T/C (dose: 100.0 mg/kg/injection, schedule: Q01DX005 (ip), vehicle: saline with Tween-80) is 98 % of control.

Regarding `Nc1nc(N)c(N=O)c(Nc2cccc(Br)c2)n1`, the T/C is 99 % of control (dose: 12.5 mg/kg/injection, schedule: Q01DX009 (ip), vehicle: saline with Tween-80); 99 % of control under setting [1]; 90 % of control under setting [2]; 91 % of control under setting [3].

Turning to `N#CC1=CN(Cc2ccc3c(c2)OCO3)C=CC1`, the T/C (dose: 50.0 mg/kg/injection, schedule: Q01DX005 (ip), vehicle: Klucel + Tween-80) was 100 % of control; the T/C (dose: 100.0 mg/kg/injection, schedule: Q01DX005 (ip), vehicle: Klucel + Tween-80) is 98 % of control; the T/C (dose: 200.0 mg/kg/injection, schedule: Q01DX005 (ip), vehicle: Klucel + Tween-80) was 92 % of control.

Consider `CC1(C)CNC(=O)C2=C(O1)C(=O)OC2`, for which the T/C runs as follows: (dose: 100.0 mg/kg/injection, schedule: Q04DX002 (ip), vehicle: saline with Tween-80) 100 % of control; (dose: 200.0 mg/kg/injection, schedule: Q04DX002 (ip), vehicle: saline with Tween-80) 100 % of control; (dose: 400.0 mg/kg/injection, schedule: Q04DX002 (ip), vehicle: saline with Tween-80) 103 % of control.

Turning to `CN(C)CCCNc1ccc(O)c2sc3ccccc3c(=O)c12`, the T/C is 101 % of control (dose: 3.13 mg/kg/injection, schedule: Q01DX009 (ip), vehicle: saline); 103 % of control (dose: 6.25 mg/kg/injection, schedule: Q01DX009 (ip), vehicle: saline); 103 % of control (dose: 12.5 mg/kg/injection, schedule: Q01DX009 (ip), vehicle: saline); 100 % of control (dose: 25.0 mg/kg/injection, schedule: Q01DX009 (ip), vehicle: saline).

Turning to `NC(=O)C(F)C(N)C(=O)O` (centres undefined), the T/C reads like this: (dose: 12.5 mg/kg/injection, schedule: Q01DX009 (ip), vehicle: suspension in saline) 100 % of control; under setting [4], 103 % of control; under setting [5], 97 % of control.

`O=C(CNC(=O)Nc1ccc(Cl)c(Cl)c1)N/N=C/c1ccc2c(c1)OCO2`: the T/C by setting is: under setting [2], 91 % of control; under setting [3], 90 % of control; under setting [6], 89 % of control.

With `O=C(O)C[CH2][Sn](=[O])[CH2]CC(=O)O`, the T/C under setting [7] was 101 % of control; the T/C under setting [8] was 101 % of control; the T/C (dose: 200.0 mg/kg/injection, schedule: Q01DX005 (ip), vehicle: Klucel (hydroxypropylcellulose) (HPC)) is 102 % of control.

Consider `CC1NCC23CCC4C(CC=C5CC(O)CCC54C)C2CCC13` (centres undefined), for which the T/C under setting [1] is 90 % of control, the T/C under setting [2] is 87 % of control and the T/C under setting [3] was 94 % of control.

For the compound `OC1COCCC(O)(CNCc2ccccc2)C1O` (centres undefined), the T/C is, setting by setting: (dose: 50.0 mg/kg/injection, schedule: Q01DX009 (ip), vehicle: saline) 98 % of control; (dose: 100.0 mg/kg/injection, schedule: Q01DX009 (ip), vehicle: saline) 107 % of control.

Take `COc1cc(OC)c(/C=C/c2c3ccccc3cc[n+]2C)c(OC)c1`: the T/C is, setting by setting: (dose: 0.39 mg/kg/injection, schedule: Q01DX009 (ip), vehicle: saline with Tween-80) 108 % of control; (dose: 0.78 mg/kg/injection, schedule: Q01DX009 (ip), vehicle: saline with Tween-80) 121 % of control; (dose: 3.13 mg/kg/injection, schedule: Q01DX009 (ip), vehicle: saline with Tween-80) 152 % of control.

As to `C/C(=C/C=C(c1ccccc1)c1ccccc1)C1CCC2C3CCC4CC5CCC4(C)C3(O5)C(=O)CC12C` (centres undefined), the T/C was 102 % of control (dose: 6.25 mg/kg/injection, schedule: Q04DX002 (sc), vehicle: steriod suspending solution); 105 % of control (dose: 12.5 mg/kg/injection, schedule: Q04DX002 (sc), vehicle: steriod suspending solution); 101 % of control (dose: 25.0 mg/kg/injection, schedule: Q04DX002 (sc), vehicle: steriod suspending solution); 101 % of control (dose: 50.0 mg/kg/injection, schedule: Q04DX002 (sc), vehicle: steriod suspending solution).

For the compound `CCN(CC)Cc1c(C)[nH]c2ccc(NC(C)=O)cc2c1=O`, the T/C runs as follows: under setting [2], 116 % of control; under setting [3], 114 % of control.

Regarding `Oc1cccc(/C=N/N=C/c2cccc(O)c2O)c1O`, the T/C by setting is: (dose: 50.0 mg/kg/injection, schedule: Q01DX009 (ip), vehicle: Klucel (hydroxypropylcellulose) (HPC)) 96 % of control; (dose: 100.0 mg/kg/injection, schedule: Q01DX009 (ip), vehicle: Klucel (hydroxypropylcellulose) (HPC)) 93 % of control.

Regarding `O=C(O)C(=Cc1cccc2ccccc12)C(=O)O`, the T/C (dose: 25.0 mg/kg/injection, schedule: Q01DX005 (ip), vehicle: Klucel (hydroxypropylcellulose) (HPC)) is 89 % of control; the T/C under setting [7] is 100 % of control; the T/C under setting [8] was 89 % of control.

Take `O=C1N2CCCSC2=NC1(c1ccccc1)c1ccccc1`: the T/C was 97 % of control under setting [9], 98 % of control under setting [10] and 89 % of control under setting [11].

Consider `COc1ccc(C2C3=C(CCCC3=O)OC3=C2C(=O)CCC3)cc1`, for which the T/C was 96 % of control under setting [9], 99 % of control under setting [10] and 100 % of control under setting [11].

With `COC(=O)C1=C(C)NC(C)=C(C(=O)OC)C1c1cc2ccccc2n2nnnc12`, the T/C under setting [9] is 95 % of control, the T/C under setting [10] is 98 % of control and the T/C under setting [11] was 88 % of control.

Turning to `O=c1[nH]ncc(=S)[nH]1`, the T/C reads like this: under setting [4], 90 % of control; under setting [5], 103 % of control; (dose: 100.0 mg/kg/injection, schedule: Q01DX009 (ip), vehicle: suspension in saline) 87 % of control.

Take `Cc1ccc2nc(CC(O)(c3ccccc3)c3ccccc3)ccc2c1`: the T/C was 110 % of control under setting [2], 95 % of control under setting [3] and 94 % of control under setting [6].
